# Test results as given in paper PMC5368910 (BMC Pharmacology & Toxicology, 2017).
# Like-named read-outs stand apart in the source and are kept apart here.
# Legend:
# [1] = after the first single oral dose, both SAD and MAD groups
# Description: (§1) Randomization was assigned by blinded study personnel and stratified by gender to achieve an equal number of male and female subjects in each cohort. Subjects aged 18–49 years and 50–75 years were equally distributed in each dosing cohort.
# (§2) Any subject receiving at least one full dose of the study drug was included in the PK analysis population. PK analysis during the SAD study was conducted on serial plasma samples collected predose and at 30 min, 1, 2, 4, 6, 8, 12, 24, 48, and 72 h after dosing, and analyzed using a validated liquid chromatography-tandem mass spectrometry (LC/MS/MS) method, with a lower limit of quantification (LLOQ) of 1 ng/mL. […] The samples were analyzed using an API 5000 triple quadrupole mass spectrometer (Applied Biosystems/ScieEx, Concord, ON, Canada) using electrospray ionization in positive ion mode. Analyst^TM software (version 1.4.2., Applied Biosystems, Foster City, CA, USA) was used for data acquisition. In total, 8 calibration solutions with a range of 1.00 ng/mL to 1000 ng/mL were used as internal standards in addition to a blank. Inter-assay bias was determined to be –2.6 to 2.5% with inter-assay precision of 3.9 to 9.4%.
# (§3) Plasma PK parameters were calculated using standard noncompartmental methods in a validated version of WinNonlin (version 5.2, Pharsight, Mountain View, CA, USA). All concentrations that were below the LLOQ prior to the first detectable concentration were assigned a value of 0. All concentrations that were below the LLOQ after the first quantifiable concentration were designated as missing and replaced with a period. Actual sample collection times were used in the analysis of the concentration versus time profiles for individual subjects. Integration of plasma concentrations versus time was conducted using the linear-up, log-down function in WinNonlin. The following parameters were determined: maximum plasma concentration (Cmax), time of Cmax (Tmax), area under the concentration-time curve (AUC) from 0 to last measurable plasma concentration (AUC0-t), AUC from 0 to infinity (AUC0-∞), percent of dose excreted in the urine, and terminal exponential half-life (t½).
# [2] = MAD, 500 mg BID oral, plasma, LC/MS/MS, LLOQ 1 ng/mL, median (range)
# Description: (§4) Subjects were dosed BID, once in the morning and once in the evening, for 14 consecutive days, with at least 8 ounces of water and approximately 1 h after breakfast and 1 h after dinner.
# (§5) During the MAD study, serial plasma samples for PK analysis were collected predose and at 30 min, 3, 6, and 9 h after the morning dose on days 1 and 14, and before the morning dose on days 4, 7, 10, and 12 (trough levels). […] Samples were analyzed using the same bioanalytical LC/MS/MS method as in the SAD study (LLOQ of 1 ng/mL).
# as §3
# [3] = SAD, single oral dose, urine over a 7-day period, LC/MS/MS
# Description: Any subject receiving at least one full dose of the study drug was included in the PK analysis population. PK analysis during the SAD study was conducted on serial plasma samples collected predose and at 30 min, 1, 2, 4, 6, 8, 12, 24, 48, and 72 h after dosing, and analyzed using a validated liquid chromatography-tandem mass spectrometry (LC/MS/MS) method, with a lower limit of quantification (LLOQ) of 1 ng/mL. Urine and stool samples were also collected during this period and analyzed using LC/MS/MS. Urine and feces were collected for 7 days after dose administration. The samples were analyzed using an API 5000 triple quadrupole mass spectrometer (Applied Biosystems/ScieEx, Concord, ON, Canada) using electrospray ionization in positive ion mode. […]
# Plasma PK parameters were calculated using standard noncompartmental methods in a validated version of WinNonlin (version 5.2, Pharsight, Mountain View, CA, USA). […] All concentrations that were below the LLOQ after the first quantifiable concentration were designated as missing and replaced with a period. […] The following parameters were determined: maximum plasma concentration (Cmax), time of Cmax (Tmax), area under the concentration-time curve (AUC) from 0 to last measurable plasma concentration (AUC0-t), AUC from 0 to infinity (AUC0-∞), percent of dose excreted in the urine, and terminal exponential half-life (t½).
# [4] = not given; remark: listed apart in the source
# [5] = tested on: C. difficile; parameters: method as in PMID 22183166, PMID 22391542; conditions: cited from earlier work
# [6] = tested on: initial and relapsing hamster CDAD; parameters: method as in PMID 22802252; conditions: given orally; potency similar to vancomycin; cited from earlier work
# [7] = clinical; conditions: both, human, plasma, po
# Description: as §1, §2, §3
# [8] = clinical; conditions: both, human, plasma, po, MAD, median (range); for AUC(0-t): AUC0–t; for Tmax: LLOQ 1 ng/mL
# Description: as §4, §5, §3
# [9] = rats; ref Yin N et al., ICAAC 2010, unpublished data; cited from earlier work
# [10] = dogs; ref Yin N et al., ICAAC 2010, unpublished data; cited from earlier work
# [11] = SAD, of the 32 subjects who received surotomycin
# [12] = MAD, subjects who received surotomycin (n = 24)
# [13] = 250 mg, 250 mg BID oral, day 1, LC/MS/MS, cohort n = 8
# [14] = 1000 mg, 1000 mg BID oral, day 1, LC/MS/MS, cohort n = 8
# 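Wherever Back pain (TEAE) is given: human subjects dosed twice daily for 14 days, safety tracked through day 21 follow-up via reported adverse events, examinations, vital signs, ECG and laboratory tests.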
# 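Wherever Diarrhea (TEAE) is given: single ascending dose cohorts, safety followed through day 8 via observed or reported adverse events, physical exam, vital signs, ECG and laboratory tests, all dosed subjects analysed.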
# 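Wherever General disorders and administration- site conditions (TEAE) is given: human subjects dosed twice daily for 14 days, safety tracked through day 21 follow-up via reported adverse events, examinations, vital signs, ECG and laboratory tests.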
# 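Wherever Headache (TEAE) is given: human subjects dosed twice daily for 14 days, safety tracked through day 21 follow-up via reported adverse events, examinations, vital signs, ECG and laboratory tests.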
# 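Wherever Investigations (TEAE) is given: single ascending dose cohorts, safety followed through day 8 via observed or reported adverse events, physical exam, vital signs, ECG and laboratory tests, all dosed subjects analysed.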
# 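Wherever Musculoskeletal and connective tissue disorders (TEAE) is given: human subjects dosed twice daily for 14 days, safety tracked through day 21 follow-up via reported adverse events, examinations, vital signs, ECG and laboratory tests.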
# 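Wherever Transaminase increased (TEAE) is given: single ascending dose cohorts, safety followed through day 8 via observed or reported adverse events, physical exam, vital signs, ECG and laboratory tests, all dosed subjects analysed.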
# 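Wherever serious AEs is given: single ascending dose cohorts, safety followed through day 8 via observed or reported adverse events, physical exam, vital signs, ECG and laboratory tests, all dosed subjects analysed.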
structure (smiles),measurement,setting,value
CCCCCc1ccc(/C(C)=C/C(=O)N[C@@H](Cc2c[nH]c3ccccc23)C(=O)N[C@H](CC(N)=O)C(=O)N[C@@H](CC(=O)O)C(=O)N[C@@H]2C(=O)NCC(=O)N[C@@H](CCCN)C(=O)N[C@@H](CC(=O)O)C(=O)N[C@H](C)C(=O)N[C@@H](CC(=O)O)C(=O)NCC(=O)N[C@H](CO)C(=O)N[C@@H]([C@H](C)CC(=O)O)C(=O)N[C@@H](CC(=O)c3ccccc3N)C(=O)O[C@@H]2C)cc1 [surotomycin],time of peak median plasma concentration after the first dose,[1],6 to 12 h
same,Tmax,"[2]; day 1, cohort n = 8",6.0 (6.0–9.0) h
same,Tmax,[2]; day 14 morning dose,6.0 (0.0–9.0) h
same,median cumulative amount of the administered dose recovered in the urine,[3],< 0.01%
same,At least one TEAE,SAD 500 mg (n = 8),3 (37.5) n (%)
same,Diarrhea (TEAE),SAD 500 mg (n = 8),1 (12.5) n (%)
same,Gastrointestinal disorders (TEAE),SAD 500 mg (n = 8),2 (25.0) n (%)
same,Infections and infestations (TEAE),SAD 500 mg (n = 8),0 n (%)
same,Investigations (TEAE),SAD 500 mg (n = 8),0 n (%)
same,Transaminase increased (TEAE),SAD 500 mg (n = 8),0 n (%)
same,At least one TEAE,SAD 1000 mg (n = 8),0 n (%)
same,Diarrhea (TEAE),SAD 1000 mg (n = 8),0 n (%)
same,Gastrointestinal disorders (TEAE),SAD 1000 mg (n = 8),0 n (%)
same,Infections and infestations (TEAE),SAD 1000 mg (n = 8),0 n (%)
same,Investigations (TEAE),SAD 1000 mg (n = 8),0 n (%)
same,Transaminase increased (TEAE),SAD 1000 mg (n = 8),0 n (%)
same,At least one TEAE,SAD 2000 mg (n = 8),5 (62.5) n (%)
same,Diarrhea (TEAE),SAD 2000 mg (n = 8),3 (37.5) n (%)
same,Gastrointestinal disorders (TEAE),SAD 2000 mg (n = 8),3 (37.5) n (%)
same,Infections and infestations (TEAE),SAD 2000 mg (n = 8),0 n (%)
same,Investigations (TEAE),SAD 2000 mg (n = 8),1 (12.5) n (%)
same,Transaminase increased (TEAE),SAD 2000 mg (n = 8),1 (12.5) n (%)
same,At least one TEAE,SAD 4000 mg (n = 8),3 (37.5) n (%)
same,Diarrhea (TEAE),SAD 4000 mg (n = 8),1 (12.5) n (%)
same,Gastrointestinal disorders (TEAE),SAD 4000 mg (n = 8),1 (12.5) n (%)
same,Infections and infestations (TEAE),SAD 4000 mg (n = 8),2 (25.0) n (%)
same,Investigations (TEAE),SAD 4000 mg (n = 8),1 (12.5) n (%)
same,Transaminase increased (TEAE),SAD 4000 mg (n = 8),1 (12.5) n (%)
same,serious AEs,"SAD group, none discontinued due to AEs",No serious AEs
same,treatment-related diarrhea,"SAD, all surotomycin subjects (n = 32)",5 (15.6%) n (%)
same,increased transaminases,[11],2 (6.3%) n (%)
same,subjects with AEs assessed as treatment-related,[11],9 (28.1%) n (%)
same,tolerability,"SAD, single oral doses 500, 1000, 2000 or 4000 mg",well tolerated
same,severity of reported AEs,"SAD, single oral doses 500-4000 mg",mild to moderate
same,At least one TEAE,[4]; MAD 250 mg BID (n = 8),4 (50.0) n (%)
same,Back pain (TEAE),[4]; MAD 250 mg BID (n = 8),1 (12.5) n (%)
same,Gastrointestinal disorders (TEAE),[4]; MAD 250 mg BID (n = 8),2 (25.0) n (%)
same,General disorders and administration- site conditions (TEAE),[4]; MAD 250 mg BID (n = 8),0 n (%)
same,Headache (TEAE),[4]; MAD 250 mg BID (n = 8),1 (12.5) n (%)
same,Infections and infestations (TEAE),[4]; MAD 250 mg BID (n = 8),0 n (%)
same,Musculoskeletal and connective tissue disorders (TEAE),[4]; MAD 250 mg BID (n = 8),2 (25.0) n (%)
same,Nervous system disorders (TEAE),[4]; MAD 250 mg BID (n = 8),2 (25.0) n (%)
same,Oropharyngeal pain (TEAE),[4]; MAD 250 mg BID (n = 8),0 n (%)
same,Pruritus (TEAE),[4]; MAD 250 mg BID (n = 8),0 n (%)
same,"Respiratory, thoracic, and mediastinal disorders (TEAE)",[4]; MAD 250 mg BID (n = 8),0 n (%)
same,Skin and subcutaneous tissue disorders (TEAE),[4]; MAD 250 mg BID (n = 8),0 n (%)
same,At least one TEAE,[4]; MAD 500 mg BID (n = 8),6 (75.0) n (%)
same,Back pain (TEAE),[4]; MAD 500 mg BID (n = 8),1 (12.5) n (%)
same,Gastrointestinal disorders (TEAE),[4]; MAD 500 mg BID (n = 8),0 n (%)
same,General disorders and administration- site conditions (TEAE),[4]; MAD 500 mg BID (n = 8),0 n (%)
same,Headache (TEAE),[4]; MAD 500 mg BID (n = 8),1 (12.5) n (%)
same,Infections and infestations (TEAE),[4]; MAD 500 mg BID (n = 8),1 (12.5) n (%)
same,Musculoskeletal and connective tissue disorders (TEAE),[4]; MAD 500 mg BID (n = 8),2 (25.0) n (%)
same,Nervous system disorders (TEAE),[4]; MAD 500 mg BID (n = 8),1 (12.5) n (%)
same,Oropharyngeal pain (TEAE),[4]; MAD 500 mg BID (n = 8),1 (12.5) n (%)
same,Pruritus (TEAE),[4]; MAD 500 mg BID (n = 8),1 (12.5) n (%)
same,"Respiratory, thoracic, and mediastinal disorders (TEAE)",[4]; MAD 500 mg BID (n = 8),2 (25.0) n (%)
same,Skin and subcutaneous tissue disorders (TEAE),[4]; MAD 500 mg BID (n = 8),1 (12.5) n (%)
same,At least one TEAE,[4]; MAD 1000 mg BID (n = 8),5 (62.5) n (%)
same,Back pain (TEAE),[4]; MAD 1000 mg BID (n = 8),0 n (%)
same,Gastrointestinal disorders (TEAE),[4]; MAD 1000 mg BID (n = 8),2 (25.0) n (%)
same,General disorders and administration- site conditions (TEAE),[4]; MAD 1000 mg BID (n = 8),2 (25.0) n (%)
same,Headache (TEAE),[4]; MAD 1000 mg BID (n = 8),0 n (%)
same,Infections and infestations (TEAE),[4]; MAD 1000 mg BID (n = 8),1 (12.5) n (%)
same,Musculoskeletal and connective tissue disorders (TEAE),[4]; MAD 1000 mg BID (n = 8),0 n (%)
same,Nervous system disorders (TEAE),[4]; MAD 1000 mg BID (n = 8),2 (25.0) n (%)
same,Oropharyngeal pain (TEAE),[4]; MAD 1000 mg BID (n = 8),1 (12.5) n (%)
same,Pruritus (TEAE),[4]; MAD 1000 mg BID (n = 8),1 (12.5) n (%)
same,"Respiratory, thoracic, and mediastinal disorders (TEAE)",[4]; MAD 1000 mg BID (n = 8),2 (25.0) n (%)
same,Skin and subcutaneous tissue disorders (TEAE),[4]; MAD 1000 mg BID (n = 8),1 (12.5) n (%)
same,discontinuation due to AEs,"[4]; MAD, 500 mg BID, transient moderate anxiety and mild dyspnea 2 h after the 5th dose",One subject
same,tolerability,"[4]; MAD, 250, 500, 1000 mg BID",well tolerated
same,severity of reported AEs,"[4]; MAD, 250, 500, 1000 mg BID for 14 days",mild to moderate
same,relation of reported AEs to study drug,"[4]; MAD, all reported AEs",unrelated to the study drug
same,headache,"[4]; MAD, of the 24 subjects who received surotomycin",2 (8.3%) n (%)
same,back pain,[4]; [12],2 (8.3%) n (%)
same,constipation,[4]; [12],2 (8.3%) n (%)
same,oropharyngeal pain,[4]; [12],2 (8.3%) n (%)
same,pruritus,[4]; [12],2 (8.3%) n (%)
same,in vitro potency relative to vancomycin,"[5]; against C. difficile, by MIC90",fourfold greater
same,minimum inhibitory concentration at which 90% of the isolates were inhibited [MIC90],"[5]; in vitro, C. difficile isolates",0.5 µg/mL
same,efficacy against initial and relapsing hamster CDAD,[6],highly effective
same,AUC(0-inf),[7]; 500 mg,317 ng·h/mL
same,AUC(0-t),[7]; 500 mg,260 ng·h/mL
same,Cmax,[7]; 500 mg,10.5 ng/mL
same,Tmax,[7]; 500 mg,6 h
same,half-life,[7]; 500 mg,18.3 h
same,AUC(0-inf),[7]; 1000 mg,702 ng·h/mL
same,AUC(0-t),[7]; 1000 mg,664 ng·h/mL
same,Cmax,[7]; 1000 mg,21.5 ng/mL
same,Tmax,[7]; 1000 mg,10 h
same,half-life,[7]; 1000 mg,21.1 h
same,AUC(0-inf),[7]; 2000 mg,2080 ng·h/mL
same,AUC(0-t),[7]; 2000 mg,1860 ng·h/mL
same,Cmax,[7]; 2000 mg,66.6 ng/mL
same,Tmax,[7]; 2000 mg,8 h
same,half-life,[7]; 2000 mg,16.3 h
same,AUC(0-inf),[7]; 4000 mg,2570 ng·h/mL
same,AUC(0-t),[7]; 4000 mg,2480 ng·h/mL
same,Cmax,[7]; 4000 mg,86.7 ng/mL
same,Tmax,[7]; 4000 mg,12 h
same,half-life,[7]; 4000 mg,14.8 h
same,AUC(0-t),"[8]; 250 mg, 250 mg BID oral, day 1, 0 to last measurable concentration, cohort n = 8",41.2 ng·h/mL
same,AUC(0-t),"[8]; 250 mg, 250 mg BID oral, day 14, 0 to last measurable concentration",274 ng·h/mL
same,Cmax,[8]; [13],6.8 ng/mL
same,Cmax,"[8]; 250 mg, 250 mg BID oral, day 14, LC/MS/MS",25.5 ng/mL
same,Tmax,[8]; [13],9 h
same,Tmax,"[8]; 250 mg, 250 mg BID oral, day 14 morning dose, LC/MS/MS",4.5 h
same,AUC(0-t),"[8]; 500 mg, 500 mg BID oral, day 1, 0 to last measurable concentration, cohort n = 8",49.4 ng·h/mL
same,AUC(0-t),"[8]; 500 mg, 500 mg BID oral, day 14, 0 to last measurable concentration",313 ng·h/mL
same,Cmax,"[8]; 500 mg, 500 mg BID oral, day 1, LC/MS/MS, cohort n = 8",11 ng/mL
same,Cmax,"[8]; 500 mg, 500 mg BID oral, day 14, LC/MS/MS",37.6 ng/mL
same,AUC(0-t),"[8]; 1000 mg, 1000 mg BID oral, day 1, 0 to last measurable concentration, cohort n = 8",118 ng·h/mL
same,AUC(0-t),"[8]; 1000 mg, 1000 mg BID oral, day 14, 0 to last measurable concentration",771 ng·h/mL
same,Cmax,[8]; [14],21 ng/mL
same,Cmax,"[8]; 1000 mg, 1000 mg BID oral, day 14, LC/MS/MS",93.5 ng/mL
same,Tmax,[8]; [14],7.5 h
same,Tmax,"[8]; 1000 mg, 1000 mg BID oral, day 14 morning dose, LC/MS/MS",1.8 h
same,bioavailability after oral administration,[9],very low
same,intestinal absorption,[9],< 1%
same,intestinal absorption,[10],< 1%
